The results in this text go back to patent US10538520B2, “Benzamide and nicotinamide compounds and methods of using same” (OncoTartis Inc., priority 2013, dated 2020).

One test deals with MV4-11. Briefly: Cytotoxicity towards MV4-11 cell line. The test is classed as cell-based. To be noted: Homo sapiens. The method, then:
(§1) In various embodiments, the compounds of the disclosure are those in which show IC50 values in cytotoxicity experiments towards cells lines MV4-11 and U937 of >20 μM, 10-20 μM, 5-10 μM, 1-5 μM, or <1 μM.
(§2) The IC50 is divided into 5 categories: A<1 μM, B 1-5 μM, C 5-10 μM, D 10-20 μM, and E>20 μM.

For a further test, the system named is U-937. In words: Cytotoxicity towards U-937 cell line. In kind it is cell-based. To be noted: Homo sapiens. The method, then: as §1, §2
Test [1] has as its system MV4-11 cells. Briefly: Systemic (disseminated) MV4-11 model of AML in SCID mice, survival. To be noted: 6 days per week, days 4-58, IV MV4-11 (FIG. 3). The test is classed as in vivo. The method, then:
FIG. 3. Example of survival of SCID mice inoculated via IV route with MV4-11 cells and treated via oral gavage with vehicle control, TT-01901 at 100 mg/kg and TT-03586 at 50 mg/kg 6 days per week on days 4-58. Mice were sacrificed according to IACUC regulations after losing more than 20% of body weight or becoming moribund and paralyzed.
(§3) Efficacy of compounds was tested in two types of xenograft models of leukemia: subcutaneous (SC) (development of tumors after SC inoculation of cells) and systemic and disseminated (development of tumors on different organs after intravenous inoculation of cells). MV4-11 cells (ATCC CRL-9591) of acute myelomonocytic leukemia (AML) were used.
In this model leukemia cells either from patient of from cell lines are administered intravenously into mice and leukemia cells are engrafted into blood and blood-forming organs (bone marrow, thymus, spleen).
In systemic model of AML SCID mice were irradiated with 3 Gy and inoculated intravenously with MV4-11 cells 24 h after irradiation. Mice were treated with vehicle control, TT-01901 and TT-03586 during days 4-58 (FIG. 3). 30 days after cells implantation mice treated with vehicle were gradually becoming sick, scruffy and were losing weight. […] The ratio of survival of treated mice versus survival of control mice in percent (T/C) was calculated using formula: T/C %=average survival time for treated mice/average survival time for control mice*100. Increase in the survival (IS) was calculated using formula: IS=(average survival time of treated mice−average survival time of control mice)/average survival time of control mice*100. […] The corresponding increase in survival was 35% and 48%.

Test [2] has as its system MV4-11 cells. Briefly: Subcutaneous MV4-11 xenograft model of AML in SCID mice, tumor growth. To be noted: for maximum suppression of tumor growth (STG %): 6 days per week; for effect on tumor growth: SCID mice inoculated SC with MV4-11 cells (FIGS. 1 and 2). In kind it is in vivo. As to the method:
FIG. 1. Example of growth of tumors in MV4-11 xenograft model of AML in SCID mice treated with vehicle control and TT-03197 at 10 mg/kg and 40 mg/kg administered intraperitoneally. Mice were treated 6 days per week as indicated on the figure. Results are Mean±SE (n=14-16).
FIG. 2. Example of growth of tumors in MV4-11 xenograft model of AML in SCID mice treated with vehicle control and TT-03203 at 10 mg/kg and 25 mg/kg administered orally. Mice were treated 6 days per weeks as indicated on the figure. Results are Mean±SE (n=17-20)
as §3
The maximum suppression of tumor growth (calculated using formula: STG %=(volume control-volume treated)/volume control*100) was 28% for mice treated with 10 mg/kg of TT-03197 and 55% for mice treated with 40 mg/kg of […] (FIG. 1). For TT-03203 the maximum STG was 27% for mice treated PO with 10 mg/kg of TT-03203 and 46% for mice treated with 25 mg/kg of TT-03203 (FIG. 2).

Molecules are shown by their SMILES. Some results are limits rather than exact numbers.

In the test with MV4-11, `O=C(NCCCn1ccnc1)c1ccc(-n2cccn2)c(C#Cc2ccccc2)c1` [TT-01901] yielded an IC50 of less than 1 µM. The compound also came in with an IC50 in the test with U-937 of less than 1 µM. In addition, in the test on MV4-11 cells [1] (100 mg/kg oral gavage), the “increase in survival (IS)” value was found to be 35% and the “survival of treated mice versus control mice (T/C %)” value turned out to be 135%.

On to `O=C(NCCCc1cn[nH]c1)c1ccc(-n2cccn2)c(C#Cc2ccc(F)cc2)c1` [TT-03197], for which the IC50 in the test on MV4-11 and with U-937 was less than 1 µM throughout. Further, the “maximum suppression of tumor growth (STG %)” value in the test on MV4-11 cells [2] (10 mg/kg, intraperitoneally, SC MV4-11 xenograft (FIG. 1)) amounted to 28%. In addition, the “effect on tumor growth” value in the test on MV4-11 cells [2] is “dose-dependent reduction of tumor growth”.

On to `O=C(NCCCc1cn[nH]c1)c1ccc(-n2cccn2)c(C#Cc2ccc(Cl)cc2)c1` [TT-03203], for which the IC50 in the test with MV4-11 and in the test with U-937 was less than 1 µM in each case. Moreover, the “maximum suppression of tumor growth (STG %)” value in the test on MV4-11 cells [2] (10 mg/kg PO, SC MV4-11 xenograft (FIG. 2)) was found to be 27%; in the test with MV4-11 cells [2] (25 mg/kg PO, SC MV4-11 xenograft (FIG. 2)), 46%; in the test on MV4-11 cells [2] (40 mg/kg, intraperitoneally, SC MV4-11 xenograft (FIG. 1)), 55%. In addition, in the test with MV4-11 cells [2], the “effect on tumor growth” value was “dose-dependent reduction of tumor growth”.

In the test with MV4-11, `O=C(NCCCc1cn[nH]c1)c1ccc(N2CCOCC2)c(C#Cc2ccc(F)cc2)c1` [TT-03586] came in with an IC50 of less than 1 µM. Also, the IC50 in the test on U-937 is less than 1 µM. For the same compound, in the test on MV4-11 cells [1] (50 mg/kg oral gavage), the “increase in survival (IS)” value is on record as 48% and the “survival of treated mice versus control mice (T/C %)” value is listed as 148%.

On to `CC1(C)CCCN(c2ccc(C(=O)NCCCc3cn[nH]c3)cc2C#Cc2ccc(F)cc2)C1` [TT-03676], for which the IC50 with MV4-11 and with U-937 was less than 1 µM in each case.

For `O=C(NC/C=C/c1cn[nH]c1)c1ccc(N2CCCC2)c(C#Cc2ccc(F)cc2)c1` [TT-03717], the IC50 in the test with MV4-11 and with U-937 was less than 1 µM in each case.

As to `C[C@@H]1CN(c2ccc(C(=O)NC/C=C/c3cn[nH]c3)cc2C#Cc2ccc(F)cc2)C[C@H](C)O1` [TT-03718], the IC50 in the test on MV4-11 and in the test on U-937 was less than 1 µM in each case.

Turning to `COc1ccc(C#Cc2cc(C(=O)NCCCc3cn[nH]c3)ccc2N2CCOCC2)cn1` [TT-03720], the IC50 with MV4-11 and in the test on U-937 was less than 1 µM throughout.

In the case of `NCCOCCOCCOCCN1CCN(c2ccc(C(=O)NCCCn3ccnc3)cc2C#Cc2ccc(F)cc2)CC1` [TT-03725], the 50% inhibitory concentration (IC50) in the test with MV4-11 and with U-937 was less than 1 µM each time.

For the compound `C[C@@H]1CN(c2ccc(C(=O)NCCCn3ccnc3)cc2C#Cc2ccc(F)cc2)C[C@H](C)O1` [TT-03727], the IC50 with MV4-11 and in the test with U-937 was less than 1 µM each time.

For `C[C@@H]1CN(c2ccc(C(=O)N3CC[C@H](O)[C@@H](n4ccnc4)CC3)cc2C#Cc2ccc(F)cc2)C[C@H](C)O1` [TT-03732], the concentration for half-maximal inhibition (IC50) is less than 1 µM with MV4-11 and 1 to 5 µM in the test on U-937.

Consider `C[C@@H]1CN(c2ccc(C(=O)N[C@@H]3CC[C@@H](n4ccnc4)[C@@H]3O)cc2C#Cc2ccc(F)cc2)C[C@H](C)O1` [TT-03733], for which the IC50 in the test with MV4-11 was less than 1 µM; in the test on U-937, 1 to 5 µM.

Take `Cc1nccn1CCCNC(=O)c1ccc(N2CCN(CCOCCOCCOCCN)CC2)c(C#Cc2ccc(F)cc2)c1` [TT-03749]: the IC50 in the test with MV4-11 is 1 to 5 µM; with U-937, 10 to 20 µM.

Regarding `C[C@@H]1CN(c2ncc(C(=O)NCCCc3cn[nH]c3)cc2C#Cc2ccc(F)cc2)C[C@H](C)O1` [TT-03750], the IC50 in the test with MV4-11 and in the test with U-937 was less than 1 µM in each case.

`C[C@@H]1CN(c2ncc(C(=O)NC/C=C/c3cn[nH]c3)cc2C#Cc2ccc(F)cc2)C[C@H](C)O1` [TT-03751]: the IC50 in the test with MV4-11 and with U-937 was less than 1 µM in each case.

For `C[C@@H]1CN(c2ncc(C(=O)NC/C=C/c3cn[nH]c3)cc2C#Cc2ccc(Cl)cc2)C[C@H](C)O1` [TT-03752], the IC50 in the test on MV4-11 and in the test with U-937 was less than 1 µM throughout.

`C[C@@H]1CN(c2ncc(C(=O)NCCCc3cn[nH]c3)cc2C#Cc2ccc(Cl)cc2)C[C@H](C)O1` [TT-03753]: the IC50 in the test on MV4-11 and with U-937 was less than 1 µM each time.

With `C[C@@H]1CN(c2ccc(C(=O)NCCCc3cn[nH]c3)cc2C#Cc2ccc(Cl)cc2)C[C@H](C)O1` [TT-03754], the IC50 in the test with MV4-11 and in the test with U-937 was less than 1 µM each time.

Turning to `O=C1CC2CCC(CN1)N2c1ncc(C(=O)NCCCc2cn[nH]c2)cc1C#Cc1ccc(F)cc1` (centres unmarked) [TT-03765], the half-maximal inhibitory concentration (IC50) with MV4-11 and in the test on U-937 was less than 1 µM in each case.

`O=C(NCCCc1cn[nH]c1)c1ccc(-c2cc[n+]([O-])cc2)c(C#Cc2ccc(F)cc2)c1` [TT-03773]: the 50% inhibitory concentration (IC50) in the test with MV4-11 and with U-937 was less than 1 µM each time.

As to `O=C(NCC(O)Cc1cn[nH]c1)c1cnc(N2CCOCC2)c(C#Cc2ccc(F)cc2)c1` (centres unmarked) [TT-03774], the concentration for half-maximal inhibition (IC50) is less than 1 µM in the test with MV4-11 and 1 to 5 µM in the test on U-937.

For the compound `O=C(NCCCc1cn[nH]c1)c1cnc(N2CC[S+]([O-])CC2)c(C#Cc2ccc(F)cc2)c1` [TT-03782], the IC50 with MV4-11 and in the test on U-937 was less than 1 µM each time.

In the case of `O=C(NCCCc1cn[nH]c1)c1cnc(N2CCS(=O)(=O)CC2)c(C#Cc2ccc(F)cc2)c1` [TT-03783], the IC50 in the test on MV4-11 and in the test with U-937 was less than 1 µM in each case.
